Literature values, collected in US20250381145A1, “COMBINATION OF SGLT2 INHIBITORS AND MINERALCORTICOID RECEPTOR MODULATORS FOR USE IN TREATMENT OF CARDIORENAL DISEASES” (ASTRAZENECA AB, priority 2022, published 2025).

solubility (BCS characterisation) | SMILES
low | CNC(=O)C[C@H]1COc2cc(F)ccc2N1C(=O)c1ccc2c(c1)NC(=O)CO2 [AZD9977, balcinrenone]
high | CCOc1ccc(Cc2cc([C@@H]3O[C@H](CO)[C@@H](O)[C@H](O)[C@H]3O)ccc2Cl)cc1 [dapagliflozin]
